Measured values as given in patent US20100317647A1 (priority 2009, published 2010).

Each molecule was assayed against human Cat S (Homo sapiens, UniProt P25774) (assay: Cathepsin enzyme inhibition assay (fluorogenic peptide substrate cleavage)). Details: human Cat S 1 nM; substrate Z-Val-Val-Arg-AMC 20 μM; pH 6.5; fluorescence over 20 minutes.
human Cat S, sequence (P25774 115-331): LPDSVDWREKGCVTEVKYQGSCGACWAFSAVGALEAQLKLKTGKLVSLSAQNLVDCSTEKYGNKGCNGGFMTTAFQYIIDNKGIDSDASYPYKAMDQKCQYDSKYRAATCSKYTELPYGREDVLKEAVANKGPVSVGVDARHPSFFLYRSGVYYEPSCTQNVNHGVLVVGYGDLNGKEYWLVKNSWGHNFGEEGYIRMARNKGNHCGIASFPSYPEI
Format: biochemical
In short: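 IC50 values derived from fluorescence increase (ex 360 nm, em 465 nm) monitored for 20 minutes after substrate addition. Enzyme held at 1 nM with 20 μM Z-Val-Val-Arg-AMC, in pH 6.5 potassium phosphate buffer containing DTT, EDTA and Triton X-100.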
With `N#CC1(NC(=O)[C@@H]2C[C@@H](S(=O)(=O)c3ccc(F)cc3Cl)C[C@H]2C(=O)N2CC(F)(F)C2)CC1` [Example 119, (1R,2R,4R)-4-(2-Chloro-4-fluoro-benzenesulfonyl)-2-(3,3-difluoro-azetidine-1-carbonyl)-cyclopentanecarboxylic acid (1-cyano-cyclopropyl)-amide] the IC50 was 6.1 nM.
For `Cc1noc(C)c1-c1ccc(S(=O)(=O)[C@H]2C[C@@H](OC(C)C)[C@H](C(=O)NC3(C#N)CC3)C2)c(C(F)(F)F)c1` (racemic) [Example 141, (1R,2R,4R) and (1S,2S,4S)-4-[4-(3,5-Dimethyl-isoxazol-4-yl)-2-trifluoromethyl-benzenesulfonyl]-2-isopropoxy-cyclopentanecarboxylic acid (1-cyano-cyclopropyl)-amide], the IC50 was 0.2 nM.
With `COCc1cn(-c2ccc(S(=O)(=O)[C@@H]3C[C@H](OC)[C@@H](C(=O)NC4(C#N)CC4)C3)c(C(F)(F)F)c2)nn1` (racemic) [Example 246, (1S,2S,4S) and (1R,2R,4R)-2-Methoxy-4-[4-(4-methoxymethyl-[1,2,3]triazol-1-yl)-2-trifluoromethyl-benzenesulfonyl]-cyclopentanecarboxylic acid (1-cyano-cyclopropyl)-amide] the IC50 was 1.25 nM.
Molecule `N#CCNC(=O)[C@@H]1C[C@@H](S(=O)(=O)c2ccccc2Cl)C[C@H]1COc1ccc(Cl)cc1` (single isomer, unassigned) [Example 68] has an IC50 of 2.2 nM.
`CO[C@@H]1C[C@H](S(=O)(=O)c2ccc(N3CCCCC3)cc2Cl)C[C@H]1C(=O)NC1(C#N)CC1` (racemic) [Example 64, (1R,2R,4R) and (1S,2S,4S)-4-(2-Chloro-4-piperidin-1-yl-benzenesulfonyl)-2-methoxy-cyclopentanecarboxylic acid (1-cyano-cyclopropyl)-amide] was tested, and the IC50 was 12 nM.
Work on `N#CCNC(=O)[C@@H]1C[C@@H](S(=O)(=O)Cc2ccccc2)C[C@H]1C(=O)N1CCOCC1` [Example 38, (1R,2R,4R)-2-(Morpholine-4-carbonyl)-4-phenylmethanesulfonyl-cyclopentanecarboxylic acid cyanomethyl-amide] yielded an IC50 of 533 nM.
`CCO[C@@H]1C[C@H](S(=O)(=O)c2ccc(Br)cc2C(F)(F)F)C[C@H]1C(=O)NC1(C#N)CC1` (racemic) [Example 113, (1R,2R,4R) and (1S,2S,4S)-4-(4-Bromo-2-trifluoromethyl-benzenesulfonyl)-2-ethoxy-cyclopentanecarboxylic acid (1-cyano-cyclopropyl)-amide] showed an IC50 of 1.1 nM.
Work on `CO[C@@H]1C[C@H](S(=O)(=O)c2ccc(-c3ccc(F)c(F)c3)cc2C(F)(F)F)C[C@H]1C(=O)NC1(C#N)CC1` (racemic) [Example 74, (1R,2R,4R) and (1S,2S,4S)-4-(3′,4′-Difluoro-3-trifluoromethyl-biphenyl-4-sulfonyl)-2-methoxy-cyclopentanecarboxylic acid (1-cyano-cyclopropyl)-amide] yielded an IC50 of 0.7 nM.
In the case of `N#CC1(NC(=O)[C@@H]2C[C@@H](S(=O)(=O)c3ccccc3)C[C@H]2C(=O)N2CCOCC2)CCC1` [Example 35, (1R,2R,4R)-4-Benzenesulfonyl-2-(morpholine-4-carbonyl)-cyclopentanecarboxylic acid (1-cyano-cyclobutyl)-amide], the IC50 is reported as 4 nM.
`COC[C@@H]1C[C@@H](S(=O)(=O)c2ccccc2Cl)C[C@H]1C(=O)NCC#N` (single isomer, unassigned) [Example 104] showed an IC50 of 1200 nM.
`N#CCNC(=O)[C@@H]1C[C@H](S(=O)(=O)c2ccccc2Cl)C[C@H]1COc1ccc(Cl)cc1` (single isomer, unassigned) [Example 69] showed an IC50 of 810 nM.
Work on `CO[C@@H]1C[C@H](S(=O)(=O)c2ccc(N3CCN(C4CC4)CC3)cc2C(F)(F)F)C[C@H]1C(=O)NC1(C#N)CC1` (racemic) [Example 215, (1R,2R,4R) and (1S,2S,4S)-4-[4-(4-Cyclopropyl-piperazin-1-yl)-2-trifluoromethyl-benzenesulfonyl]-2-methoxy-cyclopentanecarboxylic acid (1-cyano-cyclopropyl)-amide] yielded an IC50 of 6.6 nM.
With `CO[C@@H]1C[C@H](S(=O)(=O)c2ccc(-c3ccnc(C(F)(F)F)c3)cc2C(F)(F)F)C[C@H]1C(=O)NC1(C#N)CC1` (racemic) [Example 109, (1R,2R,4R) and (1S,2S,4S)-2-Methoxy-4-[2-trifluoromethyl-4-(2-trifluoromethyl-pyridin-4-yl)-benzenesulfonyl]-cyclopentanecarboxylic acid (1-cyano-cyclopropyl)-amide] the IC50 was 0.4 nM.
`Cc1ccc(CO[C@@H]2C[C@H](S(=O)(=O)c3ccccc3Cl)C[C@H]2C(=O)NC2(C#N)CC2)cc1` (racemic) [Example 150, (1R,2R,4R) and (1S,2S,4S)-4-(2-Chlorophenylsulfonyl)-N-(1-cyanocyclopropyl)-2-(4-methylbenzyloxy)cyclopentanecarboxamide] showed an IC50 of 4.15 nM.
With `CO[C@@H]1C[C@H](S(=O)(=O)c2ccc(N3CCOCC3)cc2C(F)(F)F)C[C@H]1C(=O)NC1(C#N)CC1` (racemic) [Example 176, (1R,2R,4R) and (1S,2S,4S)-2-Methoxy-4-(4-morpholin-4-yl-2-trifluoromethyl-benzenesulfonyl)-cyclopentanecarboxylic acid (1-cyano-cyclopropyl)-amide] the IC50 was 1.47 nM.
For `CC(C)(C)N1CCN(c2ccc(S(=O)(=O)[C@@H]3C[C@@H](C(=O)NC4(C#N)CC4)[C@H](C(=O)N4CCC(F)(F)C4)C3)c(Cl)c2)CC1` [Example 192, (1R,2R,4R)-4-[4-(4-tert-Butyl-piperazin-1-yl)-2-chloro-benzenesulfonyl]-2-(3,3-difluoro-pyrrolidine-1-carbonyl)-cyclopentanecarboxylic acid (1-cyano-cyclopropyl)-amide], the IC50 was 0.155 nM.
`Cc1cc(Cl)ccc1S(=O)(=O)[C@@H]1C[C@@H](C(=O)NCC#N)[C@H](C(=O)N2CCOCC2)C1` [Example 8, (1R,2R,4R)-4-(4-Chloro-2-methyl-benzenesulfonyl)-2-(morpholine-4-carbonyl)-cyclopentanecarboxylic acid cyanomethyl-amide] was tested, and the IC50 was 0.4 nM.
Molecule `N#CC1(NC(=O)[C@@H]2C[C@@H](S(=O)(=O)c3ccc(N4CC(F)(F)C4)cc3Cl)C[C@H]2C(=O)N2CC(F)(F)C2)CC1` [Example 136, (1R,2R,4R)-4-[2-Chloro-4-(3,3-difluoro-azetidin-1-yl)-benzenesulfonyl]-2-(3,3-difluoro-azetidine-1-carbonyl)-cyclopentanecarboxylic acid (1-cyano-cyclopropyl)-amide] has an IC50 of 1.3 nM.
`Cc1ccc(S(=O)(=O)[C@@H]2C[C@@H](C(=O)NC3(C#N)CC3)[C@H](C(=O)N3CCC(F)(F)C3)C2)c(Cl)c1` [Example 200, (1R,2R,4R)-4-(2-Chloro-4-methyl-benzenesulfonyl)-2-(3,3-difluoro-pyrrolidine-1-carbonyl)-cyclopentanecarboxylic acid (1-cyano-cyclopropyl)-amide] was tested, and the IC50 was 0.445 nM.
Work on `N#CCNC(=O)[C@@H]1C[C@@H](S(=O)(=O)c2ccccc2Cl)C[C@H]1C(=O)N1CCOCC1` [Example 3, (1R,2R,4R)-4-(2-Chloro-benzenesulfonyl)-2-(morpholine-4-carbonyl)-cyclopentanecarboxylic acid cyanomethyl-amide] yielded an IC50 of 0.5 nM.
`CCO[C@@H]1C[C@H](S(=O)(=O)c2ccc(-c3ccnc(C)c3)cc2C(F)(F)F)C[C@H]1C(=O)NC1(C#N)CC1` (racemic) [Example 114, (1R,2R,4R) and (1S,2S,4S)-2-Ethoxy-4-[4-(2-methyl-pyridin-4-yl)-2-trifluoromethyl-benzenesulfonyl]-cyclopentanecarboxylic acid (1-cyano-cyclopropyl)-amide] gave an IC50 of 0.3 nM.
Molecule `CO[C@@H]1C[C@H](S(=O)(=O)c2ccc(Cl)cc2Cl)C[C@H]1C(=O)NC1(C#N)CC1` (racemic) [Example 50, (1R,2R,4R) and (1S,2S,4S)-4-(2,4-Dichloro-benzenesulfonyl)-2-methoxy-cyclopentanecarboxylic acid (1-cyano-cyclopropyl)-amide] has an IC50 of 25 nM.
In the case of `CO[C@@H]1C[C@H](S(=O)(=O)c2ccc(F)cc2Cl)C[C@H]1C(=O)NC1(C#N)CC1` (racemic) [Example 56, (1R,2R,4R) and (1S,2S,4S)-4-(2-Chloro-4-fluoro-benzenesulfonyl)-2-methoxy-cyclopentanecarboxylic acid (1-cyano-cyclopropyl)-amide], the IC50 is reported as 24.8 nM.
Work on `N#CC1(NC(=O)[C@@H]2C[C@@H](S(=O)(=O)c3ccc(N4CC5(COC5)C4)cc3C(F)(F)F)C[C@H]2C(=O)N2CC(F)(F)C2)CC1` [Example 133, (1R,2R,4R)-2-(3,3-Difluoro-azetidine-1-carbonyl)-4-[4-(2-oxa-6-aza-spiro[3.3]hept-6-yl)-2-trifluoromethyl-benzenesulfonyl]-cyclopentanecarboxylic acid (1-cyano-cyclopropyl)-amide] yielded an IC50 of 0.5 nM.
`CCN(CC)C(=O)[C@@H]1C[C@H](S(=O)(=O)c2ccccc2)C[C@H]1C(=O)NC1(C#N)CC1` [Example 25, (1R,2R,4R)-4-Benzenesulfonyl-cyclopentane-1,2-dicarboxylic acid 1-[(1-cyano-cyclopropyl)-amide]2-diethylamide] gave an IC50 of 2.6 nM.
Molecule `COc1ccc(-c2ccc(S(=O)(=O)[C@H]3C[C@@H](OC)[C@H](C(=O)NC4(C#N)CC4)C3)c(C(F)(F)F)c2)cn1` (racemic) [Example 78, (1R,2R,4R) and (1S,2S,4S)-2-Methoxy-4-[4-(6-methoxy-pyridin-3-yl)-2-trifluoromethyl-benzenesulfonyl]-cyclopentanecarboxylic acid (1-cyano-cyclopropyl)-amide] has an IC50 of 0.3 nM.
`N#CC1(NC(=O)[C@@H]2C[C@@H](S(=O)(=O)c3ccc(Br)cc3C(F)(F)F)C[C@H]2OC2CCCC2)CC1` (racemic) [Example 195, (1R,2R,4R) and (1S,2S,4S)-4-(4-Bromo-2-trifluoromethyl-benzenesulfonyl)-2-cyclopentyloxy-cyclopentanecarboxylic acid (1-cyano-cyclopropyl)-amide] showed an IC50 of 0.917 nM.
